Results from ChEMBL document CHEMBL3867466, “Synthesis and biological evaluation of novel 2,4,5-triarylimidazole-1,2,3-triazole derivatives via click chemistry as α-glucosidase inhibitors” (Bioorg Med Chem Lett, 2016).

What was measured:
[1] = molecular target: T1, Alpha-glucosidase MAL12 (Saccharomyces cerevisiae S288c, UniProt P53341); assay: Non-competitive inhibition of bakers yeast alpha-glucosidase using p-nitrophenyl-alpha-D-glucopyranoside as substrate by Lineweaver-Burk plot analysis
[2] = molecular target: T1, Alpha-glucosidase MAL12; assay: Inhibition of bakers yeast alpha-glucosidase using p-nitrophenyl-alpha-D-glucopyranoside as substrate incubated for 15 mins followed by substrate addition measured after 30 mins by spectrophotometric analysis

T1 sequence (P53341 whole entry): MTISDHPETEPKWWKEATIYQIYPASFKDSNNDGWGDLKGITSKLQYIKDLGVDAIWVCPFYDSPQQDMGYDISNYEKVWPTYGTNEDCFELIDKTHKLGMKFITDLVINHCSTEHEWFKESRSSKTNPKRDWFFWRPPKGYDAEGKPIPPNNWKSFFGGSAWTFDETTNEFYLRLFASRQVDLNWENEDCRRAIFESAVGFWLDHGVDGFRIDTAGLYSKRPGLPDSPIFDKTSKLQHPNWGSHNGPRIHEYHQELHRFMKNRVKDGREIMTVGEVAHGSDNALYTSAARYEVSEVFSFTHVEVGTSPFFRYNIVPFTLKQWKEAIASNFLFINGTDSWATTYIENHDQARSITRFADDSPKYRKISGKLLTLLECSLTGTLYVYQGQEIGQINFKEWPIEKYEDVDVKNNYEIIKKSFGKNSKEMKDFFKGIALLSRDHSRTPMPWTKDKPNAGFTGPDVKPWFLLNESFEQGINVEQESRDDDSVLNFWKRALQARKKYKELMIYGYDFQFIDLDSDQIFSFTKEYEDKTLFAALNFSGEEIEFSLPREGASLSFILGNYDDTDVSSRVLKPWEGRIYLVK

Row | Structure (SMILES) | Ki [1] [µM] | IC50 [2] [µM]
1 | CCOc1ccccc1NC(=O)Cn1cc(Cn2c(-c3cccc(Br)c3)nc(-c3ccccc3)c2-c2ccccc2)nn1 | 14.8 | 15.2
2 | Cc1ccc(NC(=O)Cn2cc(Cn3c(-c4cccc(F)c4)nc(-c4ccccc4)c3-c3ccccc3)nn2)c(C)c1 |  | 30.1
3 | O=C(Cn1cc(Cn2c(-c3ccc(F)cc3)nc(-c3ccccc3)c2-c2ccccc2)nn1)Nc1ccc(Cl)cc1Cl |  | 22.8
4 | COc1ccc(NC(=O)Cn2cc(Cn3c(-c4cccc(Cl)c4)nc(-c4ccccc4)c3-c3ccccc3)nn2)cc1 |  | 48.2
5 | CCOc1ccc(NC(=O)Cn2cc(Cn3c(-c4ccc(C(=O)OC)cc4)nc(-c4ccccc4)c3-c3ccccc3)nn2)cc1 |  | 17
6 | CCOc1ccc(NC(=O)Cn2cc(Cn3c(-c4cccc(Cl)c4)nc(-c4ccccc4)c3-c3ccccc3)nn2)cc1 |  | 44.2
7 | COc1ccccc1-c1nc(-c2ccccc2)c(-c2ccccc2)n1Cc1cn(CC(=O)Nc2ccc(C)cc2)nn1 |  | 27
8 | CCOc1ccccc1NC(=O)Cn1cc(Cn2c(-c3ccccc3F)nc(-c3ccccc3)c2-c2ccccc2)nn1 |  | 36.9
9 | COc1ccc(NC(=O)Cn2cc(Cn3c(-c4cccs4)nc(-c4ccccc4)c3-c3ccccc3)nn2)cc1 |  | 24.2
10 | O=C(Cn1cc(Cn2c(-c3ccc(Br)cc3)nc(-c3ccccc3)c2-c2ccccc2)nn1)Nc1ccc(F)cc1 |  | 22
11 | COc1cc(-c2nc(-c3ccccc3)c(-c3ccccc3)n2Cc2cn(CC(=O)Nc3cccc(C)c3)nn2)cc(OC)c1OC |  | 20.3
12 | Cc1ccccc1NC(=O)Cn1cc(Cn2c(-c3cccc(F)c3)nc(-c3ccccc3)c2-c2ccccc2)nn1 |  | 32.1
13 | CCOc1ccc(NC(=O)Cn2cc(Cn3c(-c4cccc(Br)c4)nc(-c4ccccc4)c3-c3ccccc3)nn2)cc1 |  | 19.6
14 | Cc1ccccc1NC(=O)Cn1cc(Cn2c(-c3ccc(Br)cc3)nc(-c3ccccc3)c2-c2ccccc2)nn1 |  | 29.3
15 | COc1cc(-c2nc(-c3ccccc3)c(-c3ccccc3)n2Cc2cn(CC(=O)Nc3ccc(Cl)cc3)nn2)cc(OC)c1OC |  | 29.2
16 | COc1ccc(-c2nc(-c3ccccc3)c(-c3ccccc3)n2Cc2cn(CC(=O)Nc3ccc(Cl)cc3Cl)nn2)cc1OC |  | 21.6
17 | COC(=O)c1ccc(-c2nc(-c3ccccc3)c(-c3ccccc3)n2Cc2cn(CC(=O)Nc3cc(Cl)ccc3Cl)nn2)cc1 |  | 20.2
18 | Cc1ccc(NC(=O)Cn2cc(Cn3c(-c4cccc(Cl)c4)nc(-c4ccccc4)c3-c3ccccc3)nn2)c(C)c1 |  | 38.5
